These are literature values, as cited in US9101669B2, “Self-assembed conjugate and use thereof” (POSTECH ACADEMY-INDUSTRY FOUNDATION, priority 2012, dated 2015).

For the data set the following is noted: 1 to 1 host-guest complex, protonated forms, aqueous solution.

In the case of `NCCCCCCN` [DAH, 1,6-diaminohexane], the binding constant entry is reported as “up to 10^10 M^−1”.

Turning to `NCCCNCCCCNCCCN` [SPM, spermine], the binding constant is recorded as ≤ 10^12 M^−1.
